This is an account of results in patent publication US6780414B2 (priority 1998, dated 2004).

The target in this assay is T1, BFT (Bacteroides fragilis, UniProt P54355).
T1 sequence (P54355 26-405): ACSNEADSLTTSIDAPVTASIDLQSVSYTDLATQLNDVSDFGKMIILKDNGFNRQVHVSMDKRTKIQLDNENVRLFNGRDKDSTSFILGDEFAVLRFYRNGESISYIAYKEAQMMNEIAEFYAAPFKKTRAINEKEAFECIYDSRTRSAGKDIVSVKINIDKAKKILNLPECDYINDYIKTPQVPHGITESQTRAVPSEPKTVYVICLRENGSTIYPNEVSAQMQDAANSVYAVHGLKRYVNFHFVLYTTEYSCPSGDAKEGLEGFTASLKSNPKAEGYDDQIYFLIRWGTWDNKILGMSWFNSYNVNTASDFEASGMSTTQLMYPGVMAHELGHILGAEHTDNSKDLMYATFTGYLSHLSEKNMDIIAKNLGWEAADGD
The class given is cell-based, Bacterioides fragilis.

For the compound `NCCCCCN` [cadaverine, 1,5-diaminopentane], the “Effect of Cadaverine, enterotoxicity in Ussing chambers” value is reported as “completely” and the “ΔIsc + cadaverine” value stood at 21.5.
